Test results published in ChEMBL document CHEMBL3639213, “2,5-disubstituted piperidine orexin receptor antagonists” (2014).

Target: T1, Orexin/Hypocretin receptor type 1 (Rattus norvegicus, UniProt P56718)
T1 sequence (P56718 whole entry): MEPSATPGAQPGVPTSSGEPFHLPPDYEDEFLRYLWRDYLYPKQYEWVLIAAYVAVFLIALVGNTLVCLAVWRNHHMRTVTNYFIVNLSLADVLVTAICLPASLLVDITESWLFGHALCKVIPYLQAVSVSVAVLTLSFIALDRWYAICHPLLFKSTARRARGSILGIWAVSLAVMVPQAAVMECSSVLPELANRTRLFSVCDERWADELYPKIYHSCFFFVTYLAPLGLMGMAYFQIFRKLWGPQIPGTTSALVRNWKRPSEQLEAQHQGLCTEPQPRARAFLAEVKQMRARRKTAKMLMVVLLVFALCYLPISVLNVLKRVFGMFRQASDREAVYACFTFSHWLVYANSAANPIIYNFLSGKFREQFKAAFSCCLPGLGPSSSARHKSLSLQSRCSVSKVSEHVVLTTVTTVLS
Assay: Radioligand Binding Assay: Compound potency can be assessed by a radioligand binding assay (described in Bergman et. al. Bioorg. Med. Chem. Lett. 2008, 18, 1425-1430) in which the inhibition constant (Ki) is determined in membranes prepared from CHO cells expressing either the orexin-1 (OX1) or orexin-2 (OX2) receptor.
Type: cell membranes

| SMILES | Ki [nM] |
| --- | --- |
| C[C@@H]1CC[C@@H](Oc2ccnc3c(F)cccc23)CN1C(=O)c1ccccc1-n1nccn1 | 560 |
| Cc1ccc(-n2nccn2)c(C(=O)N2C[C@H](Nc3nccc4ccccc34)CC[C@H]2C)c1 | 3.25 |
| C[C@@H]1CC[C@@H](Oc2cccc3ocnc23)CN1C(=O)c1ccccc1-n1nccn1 | 1300 |
